Measured values taken from BindingDB's records for doi:10.7270/Q2VQ313H (Nmmlsc, 2008).
Where a name gives a salt, the structure may show the parent alone.

Each molecule was assayed against Estrogen receptor beta (Homo sapiens, UniProt Q92731) (assay: competitive ligand binding to estrogen receptor beta – cell-based, Cos7 ERbeta-GFP, E2-Alexa633, flow cytometry, dose response (AID 1221)). Conditions: not given.
Chain of Estrogen receptor beta (Q92731 whole entry): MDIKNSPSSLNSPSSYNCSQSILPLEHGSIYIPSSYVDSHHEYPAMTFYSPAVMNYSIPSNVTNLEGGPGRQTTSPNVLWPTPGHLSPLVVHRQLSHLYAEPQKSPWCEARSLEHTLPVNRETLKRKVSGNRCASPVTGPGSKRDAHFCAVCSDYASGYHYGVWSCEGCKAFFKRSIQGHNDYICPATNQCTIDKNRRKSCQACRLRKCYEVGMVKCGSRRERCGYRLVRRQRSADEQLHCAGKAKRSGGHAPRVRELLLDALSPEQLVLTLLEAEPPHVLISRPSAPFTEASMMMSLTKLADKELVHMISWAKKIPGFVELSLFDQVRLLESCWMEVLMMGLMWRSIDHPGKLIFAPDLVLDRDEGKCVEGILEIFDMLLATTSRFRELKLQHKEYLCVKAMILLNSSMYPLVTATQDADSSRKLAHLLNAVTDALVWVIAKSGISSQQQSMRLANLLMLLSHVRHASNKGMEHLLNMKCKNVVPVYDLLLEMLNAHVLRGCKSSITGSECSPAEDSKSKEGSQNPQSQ

Row | EC50 | Compound
1 | 184 nM | CC(=O)c1ccc2c(c1)[C@@H]1C=CC[C@@H]1[C@H](c1cc3c(cc1Br)OCO3)N2
2 | > 10000 nM | CC(=O)c1ccc2c(c1)C1C=CCC1C(c1cccc([N+](=O)[O-])c1)N2 (centres undefined) [1-[4-(3-nitrophenyl)-3a,4,5,9b-tetrahydro-3H-cyclopenta[c]quinolin-8-yl]ethanone]
3 | 0.87 nM | COc1ccccc1N1CCN(C(=O)c2ccc3nc(-c4ccco4)c(-c4ccco4)nc3c2)CC1 [2,3-di-2-furyl-6-{[4-(2-methoxyphenyl)piperazin-1-yl]carbonyl}quinoxaline]
4 | 1260 nM | O=C(Nc1cc(C(F)(F)F)ccc1N1CCOCC1)C1Cc2ccccc2CN1C(=O)c1ccco1 (centres undefined) [2-(2-furoyl)-N-[2-morpholino-5-(trifluoromethyl)phenyl]-3,4-dihydro-1H-isoquinoline-3-carboxamide]
5 | > 10000 nM | CCn1nnc(NC(=O)CSc2ccc(Cl)cc2)n1 [2-(4-chlorophenyl)sulfanyl-N-(2-ethyl-1,2,3,4-tetrazol-5-yl)ethanamide]
6 | 39.9 nM | CCc1ccc(-c2nn(-c3ccccc3)cc2CSC(=N)N)cc1 [2-[[3-(4-ethylphenyl)-1-phenyl-pyrazol-4-yl]methyl]isothiourea;hydrochloride]
7 | 1.74 nM | O=C(COC(=O)CCC(=O)c1cccs1)NCc1ccco1 [4-keto-4-(2-thienyl)butyric acid [2-(2-furfurylamino)-2-keto-ethyl] ester]
8 | 2.14 nM | Nc1ncnc2c1ncn2C1CCC(CO)C(O)C1 (centres undefined) [5-(6-aminopurin-9-yl)-2-(hydroxymethyl)-1-cyclohexanol]
9 | 2.73 nM | O=C(c1cc2ncc(Br)cn2n1)N1CCN(C(=O)c2ccco2)CC1 [6-bromo-2-{[4-(2-furoyl)-1-piperazinyl]carbonyl}pyrazolo[1,5-a]pyrimidine]
10 | 0.65 nM | O=C(O)c1ccc([N+](=O)[O-])c2c1NC(c1ccccc1)C1CC=CC21 (centres undefined) [9-nitro-4-phenyl-3a,4,5,9b-tetrahydro-3H-cyclopenta[c]quinoline-6-carboxylic acid]
11 | 7.69 nM | CCC(=O)Oc1ccc(C(CC)C(CC)c2ccc(OC(=O)CC)cc2)cc1 (centres undefined) [HEXESTROL DIPROPIONATE]
12 | > 10000 nM | O=C1C=C/C(=C2/Nc3ccc4ccccc4c3C3=C2CCC3)C=C1O [SMR000184811]

Row | Compound | EC50
13 | CC(=O)Oc1ccc(C2Nc3c(C(=O)O)ccc([N+](=O)[O-])c3C3C=CCC32)cc1 (centres undefined) [4-(4-acetoxyphenyl)-9-nitro-3a,4,5,9b-tetrahydro-3H-cyclopenta[c]quinoline-6-carboxylic acid] | > 10000 nM

Same assay, conditions: inactive by the depositor's call

Row | EC50 | Compound
14 | 2280 nM | COc1ccc(NS(=O)(=O)c2ccc3c(c2)[C@H]2C=CC[C@H]2[C@@H](c2ccc(C(=O)O)cc2)N3)cc1
15 | 2350 nM | Nc1ccc(-c2nc3cc([N+](=O)[O-])ccc3[nH]2)cc1
16 | 16.3 nM | O=C(OCC(=O)N1CCN(C(=O)c2ccco2)CC1)c1cc(-c2ccco2)nc2ccccc12 [2-(2-furanyl)-4-quinolinecarboxylic acid [2-[4-[2-furanyl(oxo)methyl]-1-piperazinyl]-2-oxoethyl] ester]
17 | 4180 nM | Cc1cc(-c2nn3c(-c4ccccc4)nnc3s2)c2ccccc2n1 [2-methyl-4-(3-phenyl[1,2,4]triazolo[3,4-b][1,3,4]thiadiazol-6-yl)quinoline]
18 | 83.7 nM | CCCCOC(=O)c1c(C)oc2ccc(NS(=O)(=O)c3ccc4c5c(cccc35)C(=O)N4)cc12 [2-methyl-5-[(2-oxo-1H-benzo[cd]indol-6-yl)sulfonylamino]-3-benzofurancarboxylic acid butyl ester]
19 | 438 nM | Cc1oc2cc(O)ccc2c(=O)c1Oc1ccccc1 [2-methyl-7-oxidanyl-3-phenoxy-chromen-4-one]
20 | 70.7 nM | Cc1ccc(C(=O)N/N=C/c2ccc([N+](=O)[O-])s2)cc1 [4-methyl-N-[(5-nitro-2-thiophenyl)methylideneamino]benzamide]
21 | 165 nM | Cc1cc(C)c2c(c1)[C@@H]1C=CC[C@@H]1[C@H](c1ccc(S(=O)(=O)N3CCOCC3)cc1)N2 [(3aS,4R,9bR)-6,8-dimethyl-4-[4-(morpholin-4-ylsulfonyl)phenyl]-3a,4,5,9b-tetrahydro-3H-cyclopenta[c]quinoline]
22 | 729 nM | O=C(O)c1cc(Cl)c2c(c1)[C@@H]1C=CC[C@@H]1[C@H](c1ccc(S(=O)(=O)N3CCOCC3)cc1)N2 [(3aS,4R,9bR)-6-chloranyl-4-(4-morpholin-4-ylsulfonylphenyl)-3a,4,5,9b-tetrahydro-3H-cyclopenta[c]quinoline-8-carboxylic acid]
23 | 99.4 nM | COc1ccc(CNC(=O)c2cc(-c3cccs3)on2)cc1 [MLS000087249]

Row | Compound | EC50
24 | C[C@]12CC[C@@H]3c4ccc(O)cc4C(=O)C[C@H]3[C@@H]1CC[C@@H]2O [(8R,9S,13S,14S,17S)-13-methyl-3,17-bis(oxidanyl)-8,9,11,12,14,15,16,17-octahydro-7H-cyclopenta[a]phenanthren-6-one] | 38.1 nM
